Molecules are shown by their SMILES.

This assay deals with Beta-3 Adrenergic Receptor (Homo sapiens (Human), UniProt P13945). In words: HTRF cAMP antagonist assay (IC50 determination). The format is cell-based. The following applies: CHO-K1 cells stably expressing recombinant receptor; antagonism of isoproterenol at EC90; cAMP readout. In short, it runs like this: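 CHO-K1 cells stably expressing receptor, 1500 cells/well, preincubated briefly with 10-point 5-fold compound series (top final typically 10 or 100 μM) in PBS with 1 mM IBMX, then challenged with isoproterenol at EC90 for 1 h at room temperature. cAMP read by HTRF against on-plate standard curve; IC50 from dose-response.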
Chain of Beta-3 Adrenergic Receptor (P13945 whole entry, species assumed): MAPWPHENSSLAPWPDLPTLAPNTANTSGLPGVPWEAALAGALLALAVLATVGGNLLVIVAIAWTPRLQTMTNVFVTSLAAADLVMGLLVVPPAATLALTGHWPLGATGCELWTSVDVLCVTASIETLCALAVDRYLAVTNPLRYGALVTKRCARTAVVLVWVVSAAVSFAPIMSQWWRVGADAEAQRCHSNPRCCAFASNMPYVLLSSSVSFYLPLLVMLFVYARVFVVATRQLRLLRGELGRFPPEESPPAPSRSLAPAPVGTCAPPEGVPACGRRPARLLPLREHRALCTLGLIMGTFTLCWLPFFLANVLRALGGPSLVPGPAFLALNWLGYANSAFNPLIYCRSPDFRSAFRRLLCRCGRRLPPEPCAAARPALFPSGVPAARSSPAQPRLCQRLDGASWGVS
The IC50 is the concentration that gives 50% inhibition. Take `COCS(=O)(=O)c1cccc(OC[C@@H](O)CN[C@H]2COC3(CCN(S(=O)(=O)c4cnc5ccccc5c4)CC3)C2)c1` [Compound 141, (S)-1-(3-(methoxymethylsulfonyl)phenoxy)-3-((R)-8-(quinolin-3-ylsulfonyl)-1-oxa-8-azaspiro[4.5]decan-3-ylamino)propan-2-ol]: the half-maximal inhibitory concentration (IC50) amounted to 0.0116 µM.

With `NCc1ccc(-c2cc(S(=O)(=O)N3CCC4(CC3)C[C@H](NC[C@H](O)COc3cccc(S(=O)(=O)C5(CO)CC5)c3)CO4)ccc2F)cc1` [Compound 218, (S)-1-((S)-8-(4′-(aminomethyl)-6-fluorobiphenyl-3-ylsulfonyl)-1-oxa-8-azaspiro[4.5]decan-3-ylamino)-3-(3-(1-(hydroxymethyl)cyclopropylsulfonyl)phenoxy)propan-2-ol], the IC50 amounted to 0.0293 µM.

Take `COc1ccc(S(=O)(=O)N2CCC3(CC2)C[C@H](NC[C@H](O)COc2cccc(S(=O)(=O)C(C)(C)CO)c2)CO3)cc1-c1ccc(C2(N)CC2)cc1` [Compound 224, 2-(3-((S)-3-((S)-8-(4′-(1-aminocyclopropyl)-6-methoxybiphenyl-3-ylsulfonyl)-1-oxa-8-azaspiro[4.5]decan-3-ylamino)-2-hydroxypropoxy)phenylsulfonyl)-2-methylpropan-1-ol]: the 50% inhibitory concentration (IC50) turned out to be 0.0732 µM.

Turning to `COc1cc(-c2ccc(CN)cc2)cc(S(=O)(=O)N2CCC3(CC2)C[C@H](NC[C@H](O)COc2cccc(S(=O)(=O)C4CC4)c2)CO3)c1` [Compound 229, (S)-1-((S)-8-(4′-(aminomethyl)-5-methoxybiphenyl-3-ylsulfonyl)-1-oxa-8-azaspiro[4.5]decan-3-ylamino)-3-(3-(cyclopropylsulfonyl)phenoxy)propan-2-ol], the concentration for half-maximal inhibition (IC50) was 0.0116 µM.

Turning to `COc1ccc(S(=O)(=O)N2CCC3(CC2)C[C@H](NC[C@H](O)COc2cccc(S(=O)(=O)C4(CO)CC4)c2)CO3)cc1-c1ccc(CCN)cc1` [Compound 215, (S)-1-((S)-8-(4′-(2-aminoethyl)-6-methoxybiphenyl-3-ylsulfonyl)-1-oxa-8-azaspiro[4.5]decan-3-ylamino)-3-(3-(1-(hydroxymethyl)cyclopropylsulfonyl)phenoxy)propan-2-ol], the IC50 was found to be 0.0384 µM.

Regarding `CCOc1ccc(-c2ccc(CN)cc2)cc1S(=O)(=O)N1CCC2(CC1)C[C@H](NC[C@H](O)COc1cccc(S(=O)(=O)CC)c1)CO2` [Compound 226, (S)-1-((S)-8-(4′-(aminomethyl)-4-ethoxybiphenyl-3-ylsulfonyl)-1-oxa-8-azaspiro[4.5]decan-3-ylamino)-3-(3-(ethylsulfonyl)phenoxy)propan-2-ol], the concentration for half-maximal inhibition (IC50) amounted to 0.0125 µM.

With `CCOc1ccc(-c2ccc(CN)cc2)cc1S(=O)(=O)N1CCC2(CC1)C[C@H](NC[C@H](O)COc1cccc(S(=O)(=O)C(C)(C)CO)c1)CO2` [Compound 187, 2-(3-((S)-3-((S)-8-(4′-(aminomethyl)-4-ethoxybiphenyl-3-ylsulfonyl)-1-oxa-8-azaspiro[4.5]decan-3-ylamino)-2-hydroxypropoxy)phenylsulfonyl)-2-methylpropan-1-ol], the IC50 is 0.0334 µM.

On to `CCn1cc(S(=O)(=O)N2CCC3(CC2)C[C@@H](NC[C@@H](O)COc2cccc(S(C)(=O)=O)c2)CO3)c(=O)c2ccccc21` [Compound 337, 1-ethyl-3-((R)-3-((R)-2-hydroxy-3-(3-(methylsulfonyl)phenoxy)propylamino)-1-oxa-8-azaspiro[4.5]decan-8-ylsulfonyl)quinolin-4(1H)-one], for which the 50% inhibitory concentration (IC50) came to 1.69 µM.

Regarding `CCOc1ccc(-c2ccc(CCN)cc2)cc1S(=O)(=O)N1CCC2(CC1)C[C@H](NC[C@H](O)COc1cccc(S(=O)(=O)C3(CO)CC3)c1)CO2` [Compound 214, (S)-1-((S)-8-(4′-(2-aminoethyl)-4-ethoxybiphenyl-3-ylsulfonyl)-1-oxa-8-azaspiro[4.5]decan-3-ylamino)-3-(3-(1-(hydroxymethyl)cyclopropylsulfonyl)phenoxy)propan-2-ol], the IC50 was found to be 0.0367 µM.

Values taken from patent US10927123B2, “Modulators of the beta-3 adrenergic receptor useful for the treatment or prevention of disorders related thereto” (Arena Pharmaceuticals, Inc., priority 2016, dated 2021).
